# Source: patent publication US20060069132A1, “Azolecarboxamide herbicides” (priority 2004, published 2006)
# What was measured:
# [1] = system: barnyardgrass; assay: Test B pre-/postemergence herbicide test; type: in vivo, Echinochloa crus-galli
# Outline: (§1)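 Greenhouse pot assay with simultaneous preemergence (treated seed) and postemergence (2–18 cm seedlings) applications of surfactant-containing, non-phytotoxic solvent formulations. Response scored visually 13–15 days later on a 0–100 scale, 100 meaning complete control.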
# [2] = system: Surinam grass; assay: Test B pre-/postemergence herbicide test; type: in vivo, Urochloa decumbens
# Outline: (§2)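 Pre: seeds sown, then sprayed. Post: 1–4-leaf plants (2–18 cm) sprayed at the same time. Paddy: flooded, treated at 2-leaf stage. Formulation: non-phytotoxic solvent with surfactant. Greenhouse 13–15 days; visual 0–100 score relative to controls.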
# [3] = system: cocklebur; assay: Test B pre-/postemergence herbicide test; type: in vivo, Xanthium strumarium
# Outline: as §1
# [4] = system: corn; assay: Test B pre-/postemergence herbicide test; type: in vivo, Zea mays
# Outline: as §2
# [5] = system: large crabgrass; assay: Test B pre-/postemergence herbicide test; type: in vivo, Digitaria sanguinalis
# Outline: as §2
# [6] = system: giant foxtail; assay: Test B pre-/postemergence herbicide test; type: in vivo, Setaria faberi
# Outline: as §2
# [7] = system: lambsquarters; assay: Test B pre-/postemergence herbicide test; type: in vivo, Chenopodium album
# Outline: as §2
# [8] = system: morningglory; assay: Test B pre-/postemergence herbicide test; type: in vivo, Ipomoea coccinea
# Outline: as §1
# [9] = system: pigweed; assay: Test B pre-/postemergence herbicide test; type: in vivo, Amaranthus retroflexus
# Outline: as §2
# [10] = system: rice; assay: Test B pre-/postemergence herbicide test; type: in vivo, Oryza sativa; conditions: preemergence, 125 g ai/ha; 0 to 100 scale, 0 is no effect, 100 is complete control
# Outline: as §2
# [11] = system: velvetleaf; assay: Test B pre-/postemergence herbicide test; type: in vivo, Abutilon theophrasti
# Outline: as §2
# [12] = system: blackgrass; assay: Test B postemergence herbicide test; type: in vivo, Alopecurus myosuroides; conditions: scale 0 (no effect) to 100 (complete control)
# Outline: (§3)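 Greenhouse test; postemergence application to plants at 1–4 leaves (2–18 cm); paddy species at 2 leaves; evaluated visually vs controls at 13–15 days; scale 0–100 (100 = complete control).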
# [13] = system: wheat; assay: Test B postemergence herbicide test; type: in vivo, Triticum aestivum; set-up: key to Wheat plant response rating: 0 = no effect, 100 = complete control; conditions: scale 0 (no effect) to 100 (complete control)
# Outline: (§4)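 Postemergence plants were sprayed with formulated test chemicals at 2 to 18 cm height (1- to 4-leaf stage); paddy species were grown to the 2-leaf stage. After 13 to 15 days in a greenhouse, injury was rated visually against untreated controls on a 0–100 scale (0 = no effect, 100 = complete control).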
# [14] = system: wild oat; assay: Test B postemergence herbicide test; type: in vivo, Avena fatua; conditions: scale 0 (no effect) to 100 (complete control)
# Outline: as §4
# [15] = system: rice; assay: Test B flooded paddy test; type: in vivo, Oryza sativa; conditions: 1000 g ai/ha, visual rating, scale 0 to 100 (0 no effect, 100 complete control), 13 to 15 days
# Outline: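 Plants grow to 1- to 4-leaf stage (2–18 cm) for postemergence spraying, or to 2-leaf stage for the paddy test. Formulated compound is applied. Greenhouse holding lasts 13–15 days. Response is scored visually relative to controls, 0 no effect to 100 complete control; a dash means no result.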
# [16] = system: small flower umbrella sedge; assay: Test B flooded paddy test; type: in vivo, Cyperus difformis; conditions: 1000 g ai/ha, visual rating, scale 0 to 100 (0 no effect, 100 complete control), 13 to 15 days
# Outline: as §3
# [17] = system: ducksalad; assay: Test B flooded paddy test; type: in vivo, Heteranthera limosa; conditions: 1000 g ai/ha, visual rating, scale 0 to 100 (0 no effect, 100 complete control), 13 to 15 days
# Outline: as §3
# [18] = system: barnyardgrass; assay: Test B flooded paddy test; type: in vivo, Echinochloa crus-galli; conditions: 1000 g ai/ha, visual rating, scale 0 to 100 (0 no effect, 100 complete control), 13 to 15 days
# Outline: as §3
# [19] = Postemergence, 500 g ai/ha, visual rating after 13 to 15 days, scale 0 (no effect) to 100 (complete control)
# [20] = Preemergence, 500 g ai/ha, scale 0 to 100
# [21] = postemergence, 125 g ai/ha, visual rating, scale 0 (no effect) to 100 (complete control)
# [22] = preemergence, 125 g ai/ha, 0 to 100 scale, 0 is no effect, 100 is complete control
# [23] = Postemergence, 500 g ai/ha, visual rating after 13 to 15 days
# [24] = postemergence, 125 g ai/ha, visual rating
smiles,measurement,setting,value
CCN(CC)C(=O)c1cc(NC(=O)c2cc(C(C)(C)C)nn2CC)ccc1C [Compound 69],"Plant response rating, Barnyardgrass",[1]; [19],0
same,Barnyardgrass plant response rating,[1]; [20],0
same,Barnyardgrass plant response rating,[1]; [21],0
same,"Plant response rating, Barnyardgrass",[1]; [22],0
same,"Plant response rating, Surinam Grass",[2]; [19],0
same,Surinam Grass plant response rating,[2]; [21],0
same,"Plant response rating, Surinam Grass",[2]; [22],0
same,"Plant response rating, Cocklebur",[3]; [19],0
same,Cocklebur plant response rating,[3]; [21],0
same,"Plant response rating, Cocklebur",[3]; [22],0
same,"Plant response rating, Corn",[4]; [19],0
same,Corn plant response rating,[4]; [20],0
same,Corn plant response rating,[4]; [21],0
same,"Plant response rating, Corn",[4]; [22],0
same,"Plant response rating, Crabgrass, Large",[5]; [19],0
same,"Crabgrass, Large plant response rating",[5]; [20],0
same,"Crabgrass, Large plant response rating",[5]; [21],0
same,"Plant response rating, Crabgrass, Large",[5]; [22],0
same,"Plant response rating, Foxtail, Giant",[6]; [19],0
same,"Foxtail, Giant plant response rating",[6]; [20],0
same,"Foxtail, Giant plant response rating",[6]; [21],0
same,"Plant response rating, Foxtail, Giant",[6]; [22],0
same,"Plant response rating, Lambsquarters",[7]; [19],10
same,Lambsquarters plant response rating,[7]; [21],0
same,"Plant response rating, Lambsquarters",[7]; [22],0
same,"Plant response rating, Morningglory",[8]; [19],0
same,Morningglory plant response rating,[8]; [21],0
same,"Plant response rating, Morningglory",[8]; [22],0
same,"Plant response rating, Pigweed",[9]; [19],20
same,Pigweed plant response rating,[9]; [21],10
same,"Plant response rating, Pigweed",[9]; [22],0
same,"Plant response rating, Rice",[10],0
same,"Plant response rating, Velvetleaf",[11]; [19],0
same,Velvetleaf plant response rating,[11]; [21],0
same,"Plant response rating, Velvetleaf",[11]; [22],0
same,"Plant response rating, Blackgrass",[12]; [23],30
same,Blackgrass plant response rating,[12]; [24],10
same,"Plant response rating, Wheat",[13]; [23],0
same,Wheat plant response rating,[13]; [24],0
same,"Plant response rating, Oat, Wild",[14]; [23],20
same,"Oat, Wild plant response rating",[14]; [24],10
same,Rice plant response rating,[15],0
same,"Sedge, Umbrella plant response rating",[16],0
same,Ducksalad plant response rating,[17],0
same,Barnyardgrass plant response rating,[18],0
